Data: publication PMC11515993, “ZSTK474 targeting PIK3R3 inhibits the Wilms’ tumor through G0 / G1 phase arrest” (PLOS ONE, 2024)

Legend:
[1] = tested on: WiT49 cells; assay: CCK-8 cell proliferation assay (IC50); format: cell-based; conditions: 48-hour treatment
Description: (§1) The assessment of cell proliferation was conducted utilizing the CCK-8 assay sourced from MCE (HY-K0301, USA). Following detachment utilizing 0.25% trypsin, WiT49 (2.5×10^3) and WT-CLS1 (3×10^3) cells were cultured in 96-well plates. Following adhesion, cells were subjected to varying doses of ZSTK474 (0–32 μM) for a duration of 48 hours. Following a 2-hour incubation with culture medium (90 μL) and CCK-8 reagent (10 μL) at 37°C, the measurement of the absorbance at 450 nm was conducted to measure the IC50 value of ZSTK474. Following this, the cells were treated with ZSTK474 at concentrations equivalent to 1/2, 1, and 2 times the IC50 value. Growth curves were subsequently plotted at 0, 24, 48, and 72 hours post-incubation.

[2] = tested on: WT-CLS1 cells; assay: CCK-8 cell proliferation assay (IC50); format: cell-based; conditions: 48-hour treatment
Description: as §1

[3] = tested on: WiT49 and WT-CLS1 cells; assay: Transwell cell invasiveness assay; format: cell-based; conditions: 24 and 48 hours
Description: The assessment of cell invasiveness was performed through a Transwell assay on plates coated with matrix gel. When seeded on plates, WiT49 and WT-CLS1 cells were positioned in the […] with a 10% FBS medium, while different concentrations of ZSTK474 in a serum-free medium were placed in the upper chamber. Cells were fixed and stained with crystal violet after 24 and 48 hours of treatment. Cell invasiveness was quantified using ImageJ software while observing under a light microscope.

[4] = tested on: WiT49 and WT-CLS1 cells; assay: CCK-8 growth curves; format: cell-based; conditions: 1/2, 1 and 2 times IC50; 0, 24, 48, 72 hours
Description: as §1

[5] = tested on: WiT49 and WT-CLS1 cells; assay: TUNEL assay; format: cell-based; conditions: 48 hours, low, medium and high dose
Description: In WT cells, apoptosis-induced DNA damage was identified through TUNEL staining in the low, medium, and high-dose intervention groups. After a 12-hour incubation in 24-well plates, cells were treated with varying concentrations of ZSTK474 for 48 hours. The cells were then subjected to TUNEL staining according to the manufacturer’s instructions. The cell nuclei were counterstained with DAPI and then mounted utilizing an anti-fade mounting medium. The Nikon C2 microscope was employed for image acquisition.

[6] = tested on: WiT49 and WT-CLS1 cells; assay: Cell cycle assay by flow cytometry; format: cell-based; conditions: different concentrations, 48 hours
Description: The assessment of cell cycle progression after exposure to different concentrations of ZSTK474 was conducted using the BD Cell Cycle Assay Kit from Dojindo, Japan. In accordance with standardized procedures, WT-CLS1 and WiT49 cells were cultured for 48 hours, then fixed in 75% ethanol for an additional 48 hours. Following this, the cells were centrifuged, resuspended twice in PBS, and stained with propidium iodide and RNase at 37°C for 30 minutes. Lastly, cell cycle distribution was assessed through flow cytometry.

[7] = tested on: WiT49 cells; assay: Annexin V apoptosis flow cytometry; format: cell-based; conditions: WiT49, 48 hours, IC50 dose
Description: (§2) The assessment of apoptosis was carried out using the Annexin V Apoptosis Kit (BDPharmingen, 5565547, USA). WiT49 and WT-CLS1 cells were cultured in 6-well plates for 12 hours. Subsequently, they were exposed to different concentrations of ZSTK474 for 48 hours and then analyzed using flow cytometry. FlowJo 10.8.1 software was utilized for data analysis.

[8] = tested on: WT-CLS1 cells; assay: Annexin V apoptosis flow cytometry; format: cell-based; conditions: WT-CLS1, 48 hours, IC50 dose
Description: as §2

[9] = tested on: WT-CLS1 cells; assay: RT-PCR of NRG4, CDKN1A, FGF18, PIK3R3, PDGFRB; format: cell-based; conditions: among the five genes
Description: Total RNA was extracted from WiT49 and WT-CLS1 cells utilizing TRIzol reagent (Invitrogen, CA, USA) and subsequently subjected to RT-PCR following the protocols of RTMasterMix (MCE, NJ, USA). Utilizing the SYBR Green RT-PCR Master Mix from MCE in NJ, USA, mRNA quantification was conducted on the Bio-Rad CFX ConnectTM Real-Time System. The relative expressions of NRG4, CDKN1A, FGF18, PIK3R3, and PDGFRB were measured using GAPDH as the internal reference gene.

[10] = parameters: method as in PMID 16622124; conditions: chronic oral administration, 800 mg/kg, cited from earlier work
[11] = In vivo safety in WiT49 tumor-bearing mice (body weight, blood and serum tests, organ HE staining); conditions: two weeks; for ALT / AST / BUN / CK / CRE: tumor-bearing nude mice
Description: (§3) The in vivo experiments were approved by the Institutional Animal Care and Use Committee of Chongqing Medical University (approval number: CHCMU-IACUC20220323001). After being sourced from the Animal Research Center at Chongqing Medical University, BALB/C nude mice (male, 3 weeks old) were housed in stainless steel cages in a ventilated animal room. The room temperature in the housing facility was maintained at 24°C, with a relative humidity of 60% and a 12-h light/dark cycle. Distilled water and sterilized food were available ad libitum. The mice were acclimated for a week. Injection of 2×10^6 WiT49 cells, suspended in 100μL of DMEM, into the left axilla of the mice was used to induce subcutaneous nephroblastoma xenograft tumors. Once the tumor volume reached 90–100 mm^3, the mice were segregated into four groups (n = 6 in each group). Except for one control group that was given PBS, three groups were given daily doses of ZSTK474 (MCE, China) at 25, 50, and 100 mg/kg over a two-week period. Tumor size and body weight of tumor-bearing mice were monitored throughout the study, and no mice died before meeting criteria for euthanasia. The mice were anaesthetised using 3% isoflurane, blood was taken from the eye socket and then executed by decapitation. Standard blood tests and serum analyses were performed to evaluate toxicity, focusing on liver, cardiac, and renal markers for tumor-bearing mice of each group. Tumor weights were recorded, and samples of various organs and tumors were collected for further analysis.
Fresh tumor samples were fixed in paraformaldehyde for 72 hours. The samples were processed through paraffin embedding and subsequently sectioned at a thickness of 4 μm. The subsequent procedures comprised hydration with xylene and alcohol, staining with hematoxylin and eosin, and dehydration through immersion in graded alcohol and xylene. Subsequently, images were acquired using light microscopy from Nikon, Japan.

[12] = tested on: WiT49 and WT-CLS1 cells; assay: Wound healing (scratch) cell migration assay; format: cell-based; conditions: 0, 24, 48 hours, serum-free medium
Description: WT cells (2×10^5 cells per well) were cultured in 6-well plates in a 5% CO2 environment at 37°C until confluence was achieved. A consistent wound was generated on the cellular surface, and any detached cells were eliminated using PBS. After this, WiT49 and WT-CLS1 cells were subjected to varying concentrations of ZSTK474 in a serum-free DEME medium. After a 48-hour incubation, cell migration was assessed at 0, 24, and 48 hours under a Nikon microscope. The scratch width measurement was performed using ImageJ.

[13] = tested on: WiT49 and WT-CLS1 cells; assay: Western blot of treated WT cells; format: cell-based
Description: The protein lysis solution containing 1% PMSF was used to lyse both WiT49 and WT-CLS1 cells treated with ZSTK474. After centrifugation at 12000g for 20 minutes, the protein content was quantified using a BCA assay kit (Thermo, China). Subsequently, 10 μg of protein underwent electrophoresis on a 6%-12.5% SDS-PAGE gel (EpiZyme, China) and was then transferred to a PVDF membrane (Millipore, ISEQ00010, USA) via semi-dry electrotransfer. After three TBST washes, the PVDF membranes were exposed to primary antibodies (Akt, MMP2, MMP9, PI3K, p-PI3K, p-Akt, PCNA, VEGF, P21, CyclinD, CDK4, GAPDH from ZENBIO, Chengdu, China; PIK3R3 from Proteintech, Wuhan, China) overnight at a 1:1000 dilution and 4°C. After being washed three times in TBST, the PVDF membrane was incubated with secondary antibodies (1:20000, ZENBIO, China) for one hour at room temperature. The Bio-RAD analyzer and Image Lab software were utilized for imaging and analysis.

[14] = tested on: WiT49 subcutaneous nephroblastoma xenograft tumors; assay: Subcutaneous nephroblastoma xenograft tumor growth and tumor immunofluorescence; format: in vivo, BALB/C nude mice
Description: as §3, with “analysis. Following fixation in 4% paraformaldehyde for more than 24 hours, tumor tissues underwent dehydration and paraffin embedding and were then sectioned into 4-μm slices. The sections were then subjected to thermal antigen retrieval by treating them with sodium citrate buffer and subsequently exposing them to microwave radiation. Following dewaxing, the sections were blocked using 0.5% bovine serum albumin (BSA) and left to incubate with primary antibodies overnight at 4°C. […]” for “analysis.”

Structure (SMILES): FC(F)c1nc2ccccc2n1-c1nc(N2CCOCC2)nc(N2CCOCC2)n1 [ZSTK474]
- IC50 [1]: 2000 nM
- IC50 [2]: 2510 nM
- invasion capacity (Transwell) [3]: decrease in invasion capacity
- cell growth (proliferation curve) [4]: dose-dependent suppression of cell growth
- apoptosis-induced DNA damage (TUNEL) [5]: late apoptotic DNA damage response
- percentage of cells in the G0/G1 phase [6]: significant rise in the percentage of cells in the G0/G1 phase
- rise in apoptotic cells compared to the controls [7]: 20%
- rise in apoptotic cells compared to the controls [8]: below 10%
- PIK3R3 RNA level (RT-PCR) [9]: most pronounced downregulation
- weight loss ([10]; by day 28): 14%
- dermal toxicity ([10]; more than 28 days): did not result in any dermal toxicity
- toxic damage to vital organs ([10]; more than 28 days): no evidence of toxic damage to vital organs
- ALT ([11]; 25 mg/kg daily): 69.7(44.7–96.9)
- AST ([11]; 25 mg/kg daily): 117.5 (95.8–153.7)
- BUN ([11]; 25 mg/kg daily): 8.3(5.6–10.6)
- CK ([11]; 25 mg/kg daily): 1084.2 (1029.0–1145.0)
- CRE ([11]; 25 mg/kg daily): 13.0(11.0–15.0)
- ALT ([11]; 50 mg/kg daily): 62.6(48.1–88.2)
- AST ([11]; 50 mg/kg daily): 126.1 (99.4–174.1)
- BUN ([11]; 50 mg/kg daily): 7.7(5.1–10.8)
- CK ([11]; 50 mg/kg daily): 1009.5 (793.0–1141.0)
- CRE ([11]; 50 mg/kg daily): 12.7(11.0–14.0)
- ALT ([11]; 100 mg/kg daily): 60.6(50.4–76.5)
- AST ([11]; 100 mg/kg daily): 130.4 (97.7–173.1)
- BUN ([11]; 100 mg/kg daily): 7.3(5.1–10.1)
- CK ([11]; 100 mg/kg daily): 952.5 (637.0–1135.0)
- CRE ([11]; 100 mg/kg daily): 12.5(10.0–15.0)
- hematological indices and organ pathology examination vs control ([11]; 25, 50, 100 mg/kg daily): no notable variances
- post-administration body weight changes vs PBS control ([11]; 25, 50, 100 mg/kg daily): no significant differences
- cell migration (scratch assay) [12]: reduced migration rates
- expression levels of PCNA, MMP2, MMP9 and VEGF (Western blot) ([13]; WT cells): lowered expression levels
- p-PI3K/PI3K and p-Akt/Akt (Western blot) ([13]; WT cells): reduced levels
- P21 expression (Western blot) ([13]; WiT49 and WT-CLS1): elevation in P21 expression
- cyclin D and CDK4 levels (Western blot) ([13]; WiT49 and WT-CLS1): reduction in cyclin D and CDK4 levels
- levels of PCNA, MMP2, MMP9 and VEGF in tumor tissues (immunofluorescence) ([14]; 25, 50 and 100 mg/kg): markedly reduced
- subcutaneous tumor volume vs control ([14]; day 5, high-dose treatment group): initial reductions in tumor volume
- subcutaneous tumor volume vs control ([14]; day 11, treatment group): notable reduction in tumor volumes
